Target: wild-type un-phosphorylated FGFR3 protein (Homo sapiens, UniProt P22607)
Test: FGFR Enzymatic Assay (FRET detection of peptide phosphorylation)
Assay type: biochemical
Conditions: pre-incubated for 4 hours, read-out: FGFR3_Ki
Procedure: The inhibitor potency of the exemplified compounds was determined in an enzyme discontinuous assay that measures peptide phosphorylation using FRET measurements to detect product formation. Inhibitors were serially diluted in DMSO and a volume of 0.2 μL was transferred to the wells of a 384-well plate. A 5 μL/well volume of enzyme isoforms of FGFR (−1, −2, −3 wild-type and mutant isoforms, −4) including phosphorylated and un-phosphorylated proteins diluted in assay buffer (50 mM HEPES, 10 mM MgCl2, 1 mM EGTA, 0.01% Tween-20, 5 mM DTT, pH 7.5) was added to the plate and pre-incubated with inhibitor for 5 to 15 minutes at ambient temperature. Appropriate controls (enzyme blank and enzyme with no inhibitor) were included on the plate. […] The ATP Km values were pre-determined in a separate series of experiments. The reaction plate was incubated at 25° C. for 1 hr and the reactions were ended with the addition of 5 μL/well of quench solution (50 mM Tris, 150 mM NaCl, 0.5 mg/mL BSA, pH 7.8; 45 mM EDTA, 600 nM staurosporin, with Perkin Elmer Lance Reagents at 3.75 nM Eu-antibody PY20 and 180 nM APC-Streptavidin). The plate was allowed to equilibrate for ˜10 minutes at ambient temperature before scanning on a PheraStar plate reader (BMG Labtech) instrument.
Either GraphPad prism or XLfit was used to analyze the data. The IC50 values were derived by fitting the data to a four parameter logistic equation producing a sigmoidal dose-response curve with a variable Hill coefficient. Prism equation: Y=Bottom+(Top−Bottom)/(1+10^((LogIC50−X)*Hill slope)); XLfit equation: Y=(A+((B−A)/(1+((X/C)^D)))) where X is the logarithm of inhibitor concentration and Y is the response.
The data in Table 1 was measured in wild-type un-phosphorylated FGFR3 protein.

wild-type un-phosphorylated FGFR3 protein, sequence (P22607 23-806): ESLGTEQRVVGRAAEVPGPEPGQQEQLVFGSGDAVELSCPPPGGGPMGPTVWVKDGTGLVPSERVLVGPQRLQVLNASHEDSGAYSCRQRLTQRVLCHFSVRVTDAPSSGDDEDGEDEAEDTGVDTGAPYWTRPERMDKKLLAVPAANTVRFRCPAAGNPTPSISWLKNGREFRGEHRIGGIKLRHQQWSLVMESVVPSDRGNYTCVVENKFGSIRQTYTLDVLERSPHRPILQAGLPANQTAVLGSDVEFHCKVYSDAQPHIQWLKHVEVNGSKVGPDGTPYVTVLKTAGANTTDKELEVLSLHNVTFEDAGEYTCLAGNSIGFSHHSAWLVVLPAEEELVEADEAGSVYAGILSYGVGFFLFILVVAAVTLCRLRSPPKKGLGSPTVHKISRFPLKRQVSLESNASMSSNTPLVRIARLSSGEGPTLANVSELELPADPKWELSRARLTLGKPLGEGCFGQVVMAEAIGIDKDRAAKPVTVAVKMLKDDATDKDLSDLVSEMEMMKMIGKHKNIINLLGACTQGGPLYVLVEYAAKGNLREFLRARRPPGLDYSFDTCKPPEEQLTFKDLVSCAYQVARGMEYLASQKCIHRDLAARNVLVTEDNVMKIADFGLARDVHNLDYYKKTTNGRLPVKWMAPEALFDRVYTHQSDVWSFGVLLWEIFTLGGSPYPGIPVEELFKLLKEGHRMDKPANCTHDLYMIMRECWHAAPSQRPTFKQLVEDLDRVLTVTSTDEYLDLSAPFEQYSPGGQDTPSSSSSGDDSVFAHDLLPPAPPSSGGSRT

SMILES	Ki
Cc1c(-c2c(Cl)cccc2Cl)nc2c3cc(-c4cnn(C)c4)c(N(C)C)nc3ccn12 [Example 33, 2-(2,6-Dichlorophenyl)-N,N,3-trimethyl-9-(1-methyl-1H-pyrazol-4-yl)imidazo[2,1-f][1,6]naphthyridin-8-amine]	10 to 100 nM
Cn1cc(-c2cnc3ccn4c(-c5ccco5)c(-c5ccccc5Cl)nc4c3c2)cn1 [Example 6, 2-(2-Chlorophenyl)-3-(furan-2-yl)-9-(1-methyl-1H-pyrazol-4-yl)imidazo[2,1-f][1,6]naphthyridine]	10 to 100 nM
Cn1cc(-c2cnc3ccn4cc(-c5c(F)cccc5F)nc4c3c2)cn1 [Example 11, 2-(2,6-Difluorophenyl)-9-(1-methyl-1H-pyrazol-4-yl)imidazo[2,1-f][1,6]naphthyridine]	10 to 100 nM
Cc1cc(CO)ccc1-c1nc2c3cc(-c4cnn(C)c4)cnc3ccn2c1C [Example 30, (3-Methyl-4-(3-methyl-9-(1-methyl-1H-pyrazol-4-yl)imidazo[2,1-f][1,6]naphthyridin-2-yl)phenyl)methanol]	10 to 100 nM
Cc1c(-c2ccccc2Cl)nc2c3cc(-c4cnn(C)c4)cnc3ccn12 [Example 1, 2-(2-Chlorophenyl)-3-methyl-9-(1-methyl-1H-pyrazol-4-yl)imidazo[2,1-f][1,6]naphthyridine]	10 to 100 nM
Cc1cccc(-c2nc3c4cc(-c5cnn(C)c5)cnc4ccn3c2C)c1C [Example 29, 2-(2,3-Dimethylphenyl)-3-methyl-9-(1-methyl-1H-pyrazol-4-yl)imidazo[2,1-f][1,6]naphthyridine]	10 to 100 nM
C/C=C/c1c(-c2ccccc2Cl)nc2c3cc(-c4cnn(C)c4)cnc3ccn12 [Example 3, (E)-2-(2-Chlorophenyl)-9-(1-methyl-1H-pyrazol-4-yl)-3-(prop-1-en-1-yl)imidazo[2,1-f][1,6]naphthyridine]	10 to 100 nM
OCc1c(-c2c(Cl)cccc2Cl)nc2c3cc(-c4cnn(CC(F)(F)F)c4)cnc3ccn12 [Example 81, (2-(2,6-Dichlorophenyl)-9-(1-(2,2,2-trifluoroethyl)-1H-pyrazol-4-yl)imidazo[2,1-f][1,6]naphthyridin-3-yl)methanol]	< 10 nM
Cc1c(-c2c(Cl)cccc2Cl)nc2c3cc(-c4ccc(C5CN(C(=O)CO)C5)nc4)cnc3ccn12 [Example 61, 1-(3-(5-(2-(2,6-Dichlorophenyl)-3-methylimidazo[2,1-f][1,6]naphthyridin-9-yl)pyridin-2-yl)azetidin-1-yl)-2-hydroxyethan-1-one]	10 to 100 nM
Cn1cc(-c2cnc3ccn4c(C5CC5)c(-c5ccccc5Cl)nc4c3n2)cn1 [Example 13, 9-(2-Chlorophenyl)-8-cyclopropyl-2-(1-methyl-1H-pyrazol-4-yl)imidazo[1′,2′:1,2]pyrido[3,4-b]pyrazine]	< 10 nM
Cn1cc(-c2cnc3ccn4c(Cl)c(-c5ccccc5Cl)nc4c3c2)cn1 [Example 10, 3-Chloro-2-(2-chlorophenyl)-9-(1-methyl-1H-pyrazol-4-yl)imidazo[2,1-f][1,6]naphthyridine]	10 to 100 nM
CC(O)c1c(-c2c(Cl)cccc2Cl)nc2c3cc(-c4cnn([C@H]5CCN(C(=O)CO)C5)c4)cnc3ccn12 (stereo partly drawn) [Example 58, 1-((3S)-3-(4-(2-(2,6-dichlorophenyl)-3-(1-hydroxyethyl)imidazo[2,1-f][1,6]naphthyridin-9-yl)-1H-pyrazol-1-yl)pyrrolidin-1-yl)-2-hydroxyethan-1-one]	< 10 nM
OCc1c(-c2c(Cl)cccc2Cl)nc2c3cc(-c4cnn(C5CCOC5)c4)cnc3ccn12 (centres unmarked) [Example 70, (2-(2,6-Dichlorophenyl)-9-(1-(tetrahydrofuran-3-yl)-1H-pyrazol-4-yl)imidazo[2,1-f][1,6]naphthyridin-3-yl)methanol]	< 10 nM
CC(=O)N1CC(c2ccc(-c3cnc4ccn5c(C)c(-c6c(Cl)cccc6Cl)nc5c4c3)cc2)C1 [Example 63]	< 10 nM

Now from value to compound:

Ki	SMILES
< 10 nM	Cc1c(-c2c(Cl)cccc2Cl)nc2c3cc(-c4cnn(C5CN(C(=O)Cn6ccnc6)C5)c4)cnc3ccn12 [Example 38, 1-(3-(4-(2-(2,6-Dichlorophenyl)-3-methylimidazo[2,1-f][1,6]naphthyridin-9-yl)-1H-pyrazol-1-yl)azetidin-1-yl)-2-(1H-imidazol-1-yl)ethan-1-one]
< 10 nM	CN(C)S(=O)(=O)N1CCC(n2cc(-c3cnc4ccn5cc(-c6c(Cl)cccc6Cl)nc5c4c3)cn2)C1 (centres unmarked) [Example 51, 3-(4-(2-(2,6-Dichlorophenyl)imidazo[2,1-f][1,6]naphthyridin-9-yl)-1H-pyrazol-1-yl)-N,N-dimethylpyrrolidine-1-sulfonamide]
< 10 nM	CN(C)C(=O)N[C@H]1CC[C@H](n2cc(-c3cnc4ccn5cc(-c6c(Cl)cccc6Cl)nc5c4c3)cn2)CC1 [Example 45, 3-((1r,4r)-4-(4-(2-(2,6-Dichlorophenyl)imidazo[2,1-f][1,6]naphthyridin-9-yl)-1H-pyrazol-1-yl)cyclohexyl)-1,1-dimethylurea]
< 10 nM	C=CC(=O)Nc1ccc(Cl)c(-c2nc3c4cc(-c5cnn(C)c5)cnc4ccn3c2C)c1Cl [Example 34, N-(2,4-Dichloro-3-(3-methyl-9-(1-methyl-1H-pyrazol-4-yl)imidazo[2,1-f][1,6]naphthyridin-2-yl)phenyl)acrylamide]
< 10 nM	Cn1c(-c2c(F)cccc2Cl)nc2c3nc(-c4cnn(C5CC(O)C5)c4)cnc3ccc21 (centres unmarked) [Example 21, 3-(4-(2-(2-Chloro-6-fluorophenyl)-3-methyl-3H-imidazo[4,5-f]quinoxalin-8-yl)-1H-pyrazol-1-yl)cyclobutan-1-ol]
< 10 nM	O=C(CO)N1CC[C@H](n2cc(-c3cnc4ccn5c(Br)c(-c6c(F)cccc6Cl)nc5c4c3)cn2)C1 [Example 66, (S)-1-(3-(4-(3-Bromo-2-(2-chloro-6-fluorophenyl)imidazo[2,1-f][1,6]naphthyridin-9-yl)-1H-pyrazol-1-yl)pyrrolidin-1-yl)-2-hydroxyethan-1-one]
< 10 nM	O=C(O)c1ccc(Cn2cc(-c3cnc4ccn5cc(-c6c(Cl)cccc6Cl)nc5c4c3)cn2)cc1F [Example 42, 4-((4-(2-(2,6-Dichlorophenyl)imidazo[2,1-f][1,6]naphthyridin-9-yl)-1H-pyrazol-1-yl)methyl)-2-fluorobenzoic acid]
< 10 nM	CC(C)(CO)n1cc(-c2cnc3ccn4c(CO)c(-c5c(Cl)cccc5Cl)nc4c3c2)cn1 [Example 79, 2-(4-(2-(2,6-Dichlorophenyl)-3-(hydroxymethyl)imidazo[2,1-f][1,6]naphthyridin-9-yl)-1H-pyrazol-1-yl)-2-methylpropan-1-ol]
< 10 nM	Cc1c(-c2c(Cl)cccc2Cl)nc2c3cc(-c4cnn(C5CN(C(=O)c6cocn6)C5)c4)cnc3ccn12 [Example 39, (3-(4-(2-(2,6-Dichlorophenyl)-3-methylimidazo[2,1-f][1,6]naphthyridin-9-yl)-1H-pyrazol-1-yl)azetidin-1-yl)(oxazol-4-yl)methanone]
< 10 nM	CC(C)(O)Cn1cc(-c2cnc3ccn4c(CO)c(-c5c(Cl)cccc5Cl)nc4c3c2)cn1 [Example 76, 1-(4-(2-(2,6-Dichlorophenyl)-3-(hydroxymethyl)imidazo[2,1-f][1,6]naphthyridin-9-yl)-1H-pyrazol-1-yl)-2-methylpropan-2-ol]
< 10 nM	Cc1c(-c2c(Cl)cccc2Cl)nc2c3cc(-c4cnn(C5CN(C(=O)CC#N)C5)c4)cnc3ccn12 [Example 41, 3-(3-(4-(2-(2,6-Dichlorophenyl)-3-methylimidazo[2,1-f][1,6]naphthyridin-9-yl)-1H-pyrazol-1-yl)azetidin-1-yl)-3-oxopropanenitrile]
< 10 nM	Cc1cccc(C)c1-c1nc2c3cc(-c4cnn([C@H]5CCN(C(=O)CO)C5)c4)cnc3ccn2c1C [Example 26, (S)-1-(3-(4-(2-(2,6-Dimethylphenyl)-3-methylimidazo[2,1-f][1,6]naphthyridin-9-yl)-1H-pyrazol-1-yl)pyrrolidin-1-yl)-2-hydroxyethan-1-one]
< 10 nM	O=C(N1CCOCC1)N1CC[C@H](n2cc(-c3cnc4ccn5c(CO)c(-c6c(Cl)cccc6Cl)nc5c4c3)cn2)C1 [Example 57, (S)-(3-(4-(2-(2,6-Dichlorophenyl)-3-(hydroxymethyl)imidazo[2,1-f][1,6]naphthyridin-9-yl)-1H-pyrazol-1-yl)pyrrolidin-1-yl)(morpholino)methanone]
< 10 nM	Cc1c(-c2c(Cl)cccc2Cl)nc2c3cc(-c4cnn(C5CCC(C)(C(=O)O)CC5)c4)cnc3ccn12 (centres unmarked) [Example 49, 4-(4-(2-(2,6-Dichlorophenyl)-3-methylimidazo[2,1-f][1,6]naphthyridin-9-yl)-1H-pyrazol-1-yl)-1-methylcyclohexane-1-carboxylic acid]
< 10 nM	Cc1c(-c2c(Cl)cccc2Cl)nc2c3cc(-c4cnn(C5CN(C(=O)C6(N)CC6)C5)c4)cnc3ccn12 [Example 37, (1-Aminocyclopropyl)(3-(4-(2-(2,6-dichlorophenyl)-3-methylimidazo[2,1-f][1,6]naphthyridin-9-yl)-1H-pyrazol-1-yl)azetidin-1-yl)methanone]

Reference: US12552804B2, “Tricyclic heterocycles as FGFR inhibitors” (Incyte Corporation, priority 2019, dated 2026)
